According to patent US20090022803A1, “Oral Formulations For Delivery of Catecholic Butanes Including Ndga Compounds” (priority 2005, published 2009):

Columns and labels:
[1] = M4N stability in HP-β-CD/PEG 300 buffer solutions at 60° C., RP-HPLC and pH; assay type: physicochemical; settings: for M4N stability: M4N: 25% PEG300
Description: The stability of 10 mg/mL M4N (prepared in a ratio of 75:25 40% HP-β-CD: 40 mg/mL M4N PEG 300) in 15 mM buffer solutions was evaluated following incubation at 60° C.
2.0 g HP-β-CD was weighed into 5 mL volumetric flasks on an OHAUS Analytical Plus Balance. 1 mL of a 100 mM buffer solution was added to each flask. Each sample was q.s. to 5 mL with WFI.
750 μL 40% HP-β-CD buffered solution was placed in 1.5 mL polypropylene microtubes. […] After gentle inversion of the sample tubes, the pH of each solution was measured using a Orion, Model 420A pH meter. An initial aliquot was removed for RP-HPLC analysis. Test samples were then placed in a Precision 60° C. incubator. The M4N stability was evaluated by RP-HPLC. At each time point, the samples were centrifuged for 2 minutes at 13,000 rpm to pellet any solid M4N.

HeLa cells = assay: Cell proliferation and cell death after 72 hr treatment, trypan blue exclusion; assay type: cell-based, human; settings: CPE formulation, lots EM1001 and EM1002
Description: M4N in 10% (w/v) HP-β-CD and 25% (v/v) PEG 300 (hereafter, the “CPE formulation”), M4N in 30% (w/v) HP-β-CD and 25% (v/v) PEG 300 (hereafter, the “CPE 25/30 formulation”) and M4N in 27% (w/v) HP-β-CD and 33% (v/v) PEG 300 (hereafter, the “CPE 33/27 formulation”) was tested for their effects on cell death and proliferation on two different tumor cell lines: HeLa, an HPV-18 positive human cervical cancer cell line, and C-33A, an HPV-negative human cervical cancer cell line. M4N in DMSO was also tested in parallel. Both tumor cell lines were treated with increasing amounts of M4N: 0 μM, 20 μM, 40 μM, 60 μM and 80 μM, for 72 hr with the DMSO or the CPE formulation. […] After 72 hr of treatment or no treatment, the total number of cells and the number of live cells in each sample were counted, using the trypan blue exclusion method. The cell proliferation rate and the percentage of dead cells in each sample were analyzed. […]
Various lots of M4N were tested to show the effectiveness of the drug of different lots. […] After 72 hr of treatment or no treatment, the total number of cells and the number of live cells in each sample were counted, using the trypan blue exclusion method. The cell proliferation rate and the percentage of dead cells in each sample were analyzed.

[2] = 40 mg/mL M4N/PEG 300 stability, visual appearance; assay type: physicochemical; settings: for Visual Appearance: 40 mg/mL M4N/PEG 300
Description: The stability of 40 mg/mL M4N dissolved in 100% PEG 300 was evaluated up to 24 hours incubation at 30° C., 45° C. and 60° C. A stock 40 mg/mL M4N in PEG 300 was prepared at 60° C., following the procedure set forth in Example 18. Subsequently, aliquots were removed and incubated at the appropriate temperature. Samples were rotated at 450 rpm during the entire course of incubation. Visual observations and RP-HPLC data were collected throughout. […] The formation of crystals coincided with a loss of soluble M4N (Table 30). The 40 mg/mL M4N/PEG 300 samples incubated at 45° C. and 60° C. were stable after 24 hours incubation as assessed by visual observations and RP-HPLC analysis (Tables 29 and 30).

[3] = dog, in vivo, iv, 75 mg/kg

## COc1ccc(C[C@@H](C)[C@@H](C)Cc2ccc(OC)c(OC)c2)cc1OC [Formulation M4N, meso-1,4-bis(3,4-dimethoxyphenyl)-2,3-dimethylbutane]
[1]; 10 mg/mL M4N in HP-β-CD/PEG 300 buffer solutions, 14 day incubation at 60° C.
  change in M4N concentration: slight decrease
[1]; 15 mM Acetate, pH 5 30% HP-β-CD, 60° C., 0 days
  M4N stability: M4N: 10.6 mg/mL
[1]; 15 mM Acetate, pH 5 30% HP-β-CD, 60° C., 2 days
  M4N stability: M4N: 10.2 mg/mL
[1]; 15 mM Acetate, pH 5 30% HP-β-CD, 60° C., 6 days
  M4N stability: M4N: 9.6 mg/mL
[1]; 15 mM Acetate, pH 5 30% HP-β-CD, 60° C., 10 days
  M4N stability: M4N: 9.7 mg/mL
[1]; 15 mM Acetate, pH 5 30% HP-β-CD, 60° C., 14 days
  M4N stability: M4N: 9.6 mg/mL
[1]; 15 mM Acetate, pH 6 30% HP-β-CD, 60° C., 0 days
  M4N stability: M4N: 10.5 mg/mL
[1]; 15 mM Acetate, pH 6 30% HP-β-CD, 60° C., 2 days
  M4N stability: M4N: 10.1 mg/mL
[1]; 15 mM Acetate, pH 6 30% HP-β-CD, 60° C., 6 days
  M4N stability: M4N: 9.7 mg/mL
[1]; 15 mM Acetate, pH 6 30% HP-β-CD, 60° C., 10 days
  M4N stability: M4N: 9.7 mg/mL
[1]; 15 mM Acetate, pH 6 30% HP-β-CD, 60° C., 14 days
  M4N stability: M4N: 9.6 mg/mL
[1]; 15 mM Borate, pH 10 30% HP-β-CD, 60° C., 0 days
  M4N stability: M4N: 10.5 mg/mL
[1]; 15 mM Borate, pH 10 30% HP-β-CD, 60° C., 2 days
  M4N stability: M4N: 10.1 mg/mL
[1]; 15 mM Borate, pH 10 30% HP-β-CD, 60° C., 6 days
  M4N stability: M4N: 9.7 mg/mL
[1]; 15 mM Borate, pH 10 30% HP-β-CD, 60° C., 10 days
  M4N stability: M4N: 9.6 mg/mL
[1]; 15 mM Borate, pH 10 30% HP-β-CD, 60° C., 14 days
  M4N stability: M4N: 9.6 mg/mL
[1]; 15 mM Borate, pH 11 30% HP-β-CD, 60° C., 0 days
  M4N stability: M4N: 10.5 mg/mL
[1]; 15 mM Borate, pH 11 30% HP-β-CD, 60° C., 2 days
  M4N stability: M4N: 10.3 mg/mL
[1]; 15 mM Borate, pH 11 30% HP-β-CD, 60° C., 6 days
  M4N stability: M4N: 9.8 mg/mL
[1]; 15 mM Borate, pH 11 30% HP-β-CD, 60° C., 10 days
  M4N stability: M4N: 9.5 mg/mL
[1]; 15 mM Borate, pH 11 30% HP-β-CD, 60° C., 14 days
  M4N stability: M4N: 9.4 mg/mL
[1]; 15 mM Phosphate, pH 3 30% HP-β-CD, 60° C., 0 days
  M4N stability: M4N: 10.3 mg/mL
[1]; 15 mM Phosphate, pH 3 30% HP-β-CD, 60° C., 2 days
  M4N stability: M4N: 10.1 mg/mL
[1]; 15 mM Phosphate, pH 3 30% HP-β-CD, 60° C., 6 days
  M4N stability: M4N: 9.6 mg/mL
[1]; 15 mM Phosphate, pH 3 30% HP-β-CD, 60° C., 10 days
  M4N stability: M4N: 9.7 mg/mL
[1]; 15 mM Phosphate, pH 3 30% HP-β-CD, 60° C., 14 days
  M4N stability: M4N: 9.6 mg/mL
[1]; 15 mM Phosphate, pH 4 30% HP-β-CD, 60° C., 0 days
  M4N stability: M4N: 10.5 mg/mL
[1]; 15 mM Phosphate, pH 4 30% HP-β-CD, 60° C., 2 days
  M4N stability: M4N: 10.1 mg/mL
[1]; 15 mM Phosphate, pH 4 30% HP-β-CD, 60° C., 6 days
  M4N stability: M4N: 9.6 mg/mL
[1]; 15 mM Phosphate, pH 4 30% HP-β-CD, 60° C., 10 days
  M4N stability: M4N: 9.7 mg/mL
[1]; 15 mM Phosphate, pH 4 30% HP-β-CD, 60° C., 14 days
  M4N stability: M4N: 9.6 mg/mL
[1]; 15 mM Phosphate, pH 7 30% HP-β-CD, 60° C., 0 days
  M4N stability: M4N: 10.5 mg/mL
[1]; 15 mM Phosphate, pH 7 30% HP-β-CD, 60° C., 2 days
  M4N stability: M4N: 10.3 mg/mL
[1]; 15 mM Phosphate, pH 7 30% HP-β-CD, 60° C., 6 days
  M4N stability: M4N: 9.7 mg/mL
[1]; 15 mM Phosphate, pH 7 30% HP-β-CD, 60° C., 10 days
  M4N stability: M4N: 9.7 mg/mL
[1]; 15 mM Phosphate, pH 7 30% HP-β-CD, 60° C., 14 days
  M4N stability: M4N: 9.7 mg/mL
[1]; 15 mM Phosphate, pH 8 30% HP-β-CD, 60° C., 0 days
  M4N stability: M4N: 10.6 mg/mL
[1]; 15 mM Phosphate, pH 8 30% HP-β-CD, 60° C., 2 days
  M4N stability: M4N: 10.4 mg/mL
[1]; 15 mM Phosphate, pH 8 30% HP-β-CD, 60° C., 6 days
  M4N stability: M4N: 9.7 mg/mL
[1]; 15 mM Phosphate, pH 8 30% HP-β-CD, 60° C., 10 days
  M4N stability: M4N: 9.8 mg/mL
[1]; 15 mM Phosphate, pH 8 30% HP-β-CD, 60° C., 14 days
  M4N stability: M4N: 9.6 mg/mL
[1]; 15 mM Phosphate, pH 9 30% HP-β-CD, 60° C., 0 days
  M4N stability: M4N: 10.4 mg/mL
[1]; 15 mM Phosphate, pH 9 30% HP-β-CD, 60° C., 2 days
  M4N stability: M4N: 10.2 mg/mL
[1]; 15 mM Phosphate, pH 9 30% HP-β-CD, 60° C., 6 days
  M4N stability: M4N: 9.7 mg/mL
[1]; 15 mM Phosphate, pH 9 30% HP-β-CD, 60° C., 10 days
  M4N stability: M4N: 9.8 mg/mL
[1]; 15 mM Phosphate, pH 9 30% HP-β-CD, 60° C., 14 days
  M4N stability: M4N: 9.7 mg/mL
[1]; HP-β-CD/PEG 300 buffer solutions, 60° C.
  M4N impurities, share of the total peak area: less than 0.1%
[1]; WFI, 30% HP-β-CD, 60° C., 0 days
  M4N stability: M4N: 10.4 mg/mL
[1]; WFI, 30% HP-β-CD, 60° C., 6 days
  M4N stability: M4N: 9.9 mg/mL
[1]; WFI, 30% HP-β-CD, 60° C., 10 days
  M4N stability: M4N: 9.7 mg/mL
[1]; WFI, 30% HP-β-CD, 60° C., 14 days
  M4N stability: M4N: 9.6 mg/mL
[1]; incubation at 60° C. up to 14 days
  change in apparent sample pH: Little if any changes
HeLa cells
  effectiveness of different lots of M4N: remains the same
[2]; 40 mg/mL M4N/PEG 300, 6 hours at 30° C.
  visual observation: tiny crystals
[2]; 40 mg/mL M4N/PEG 300, 24 hours at 30° C.
  visual observation: even more crystals
[2]; 30° C., 2 hours
  Visual Appearance: Clear
[2]; 30° C., 4 hours
  Visual Appearance: Clear
[2]; 30° C., 6 hours
  Visual Appearance: Few tiny
[2]; 30° C., 24 hours
  Visual Appearance: Many tiny
[2]; 45° C., 2 hours
  Visual Appearance: Clear
[2]; 45° C., 4 hours
  Visual Appearance: Clear
[2]; 45° C., 6 hours
  Visual Appearance: Clear
[2]; 45° C., 24 hours
  Visual Appearance: Clear
[2]; 60° C., 2 hours
  Visual Appearance: Clear
[2]; 60° C., 4 hours
  Visual Appearance: Clear
[2]; 60° C., 6 hours
  Visual Appearance: Clear
[2]; 60° C., 24 hours
  Visual Appearance: Clear
[3]
  Clinical observations: diarrhea, emesis, and ataxia
